Reference: paper PMC8399014, “Design of Multifaceted Antioxidants: Shifting towards Anti-Inflammatory and Antihyperlipidemic Activity” (Molecules, 2021)
Where two headings read alike, the source gives them in different places. Marks after values point to notes of the source that are not given here.

Legend:
[1] = biological target: T1, soybean lipoxygenase (LOX-3) (Glycine max, UniProt P09186); test: Soybean lipoxygenase (LOX-3) inhibition; assay type: biochemical; details: after 5 min of incubation; sodium linoleate 100 μM, pH 9.0; read-out: IC50 Value on LOX-3
T1 sequence (P09186 1-857): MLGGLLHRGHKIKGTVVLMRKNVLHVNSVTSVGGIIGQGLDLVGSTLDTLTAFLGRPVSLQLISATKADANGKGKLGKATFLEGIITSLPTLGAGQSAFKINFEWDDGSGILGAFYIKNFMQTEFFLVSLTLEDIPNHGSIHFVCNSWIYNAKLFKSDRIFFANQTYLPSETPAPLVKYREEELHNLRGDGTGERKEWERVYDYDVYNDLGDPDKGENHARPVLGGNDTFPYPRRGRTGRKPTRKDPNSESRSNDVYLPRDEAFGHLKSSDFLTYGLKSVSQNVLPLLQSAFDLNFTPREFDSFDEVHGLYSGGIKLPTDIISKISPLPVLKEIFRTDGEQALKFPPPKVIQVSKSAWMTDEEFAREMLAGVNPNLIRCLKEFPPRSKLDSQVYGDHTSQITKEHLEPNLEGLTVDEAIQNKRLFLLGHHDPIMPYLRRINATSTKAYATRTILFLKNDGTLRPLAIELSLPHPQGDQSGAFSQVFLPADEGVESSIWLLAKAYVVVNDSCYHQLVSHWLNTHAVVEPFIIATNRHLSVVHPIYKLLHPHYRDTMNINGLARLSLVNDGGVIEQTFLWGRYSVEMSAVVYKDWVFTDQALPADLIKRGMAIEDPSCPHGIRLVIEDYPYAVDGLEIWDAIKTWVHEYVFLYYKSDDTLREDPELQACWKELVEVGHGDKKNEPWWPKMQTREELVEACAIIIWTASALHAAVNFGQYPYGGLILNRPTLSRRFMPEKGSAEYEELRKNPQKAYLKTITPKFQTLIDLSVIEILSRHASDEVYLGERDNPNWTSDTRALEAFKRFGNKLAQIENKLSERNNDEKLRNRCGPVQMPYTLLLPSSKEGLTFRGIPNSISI
Description: The anti-inflammatory effect of the synthesized compounds was initially evaluated in vitro, via their ability to inhibit soybean lipoxygenase (LOX-3).
Lipoxygenase activity was determined using soybean lipoxygenase (250 U/mL) and sodium linoleate (100 μM) as substrate, in Tris–HCl buffer pH 9.0. The test compounds dissolved in methanol were added and the reaction was monitored for 5 min at 28 °C, recording absorbance at 234 nm.

[2] = tested on: carrageenan-induced mouse paw edema; test: Carrageenan-induced mouse paw edema; assay type: in vivo; details: for inhibition in vivo at 300 µmol/kg: Mus musculus, ip, 0.30 mmol/kg i.p., 3.5 h after carrageenan, mean of 6 animals, read-out: % Edema Reduction; for improvement in anti-inflammatory activity: compared to parent flufenamic acid (g) or flufenamol (h)
Description: In vivo anti-inflammatory activity of the synthesized compounds was evaluated as mouse paw edema reduction. Paw edema was induced by subcutaneous injection of a 2% carrageenan suspension in the right paw of mice, the left serving as the control. The activity of the tested compounds (at 0.30 mmol/kg of body weight, i.p.), expressed as % reduction in paw edema 3.5 h after carrageenan injection, is shown in Table 2. […] Moreover, compounds 9 and 10 (antioxidant derivatives of mefenamic acid) caused a 1.5–2-fold improvement in edema reduction compared to that of the parent mefenamic acid (i).
For the in vivo anti-inflammatory activity, Wistar male rats or C57BL/6 mice were injected with 0.025 mL carrageenan (2% w/v solution in saline) i.d. into the right hind paw, with the left paw serving as the control. The test compounds (300 μmol/kg) were given, i.p., after the carrageenan injection, and 3.5 h later, the produced edema was estimated as the paw weight increase. Results are expressed as percentage of the reduction in paw edema and are the means for six animals (per compound).

[3] = Radical scavenging of DPPH; details: DPPH 200 μM, after incubation for 30 min
Description: The antioxidant activity of compounds 1–17 was evaluated via their ability to scavenge the free radical DPPH.
Compounds dissolved in absolute methanol at concentrations of 25–400 μM were added to an equal volume of a methanolic solution of DPPH (final concentration 200 μM) at room temperature (22 ± 2 °C). Absorbance (517 nm) was recorded at different time intervals for 1 h and results were expressed as IC50 (μM) for DPPH after incubation for 30 min [3].

[4] = tested on: experimentally induced hyperlipidemic mouse model; test: Tyloxapol (Triton WR 1339)-induced hyperlipidemia; assay type: in vivo, mice; details: 84 μmol/kg i.p.; 24 h after tyloxapol
Description: Acute hyperlipidemia was achieved, i.p., by the administration of tyloxapol (Triton WR 1339). The antihyperlipidemic effect of the tested compounds was evaluated as the decrease in total cholesterol (TC) and triglyceride (TG) levels in plasma 24 h after tyloxapol administration. The results are shown in Figure 4A,B. Compounds 9 and 10 reduced TC levels in plasma by 73% and 50%, respectively, and TG levels by 76% and 41%, respectively.
An aqueous solution of Triton WR 1339 was given, i.p., to mice (400 mg/kg of body weight) and one hour later the test compounds (84 μmol/kg of body weight), dissolved in saline or saline only were administered, i.p. After 24 h, blood was taken from the aorta/heart and used for the determination of plasma total cholesterol (TC) and triglyceride (TG) levels, using commercially available kits. Levels of plasma lipids were determined in duplicate while the values presented were the mean from eight animals (per compound).

[5] = tested on: carrageenan-induced mouse paw edema; details: cited from earlier work

| Compound | IC50 [1] | melting point | inhibition in vivo at 300 µmol/kg [2] | other results |
| --- | --- | --- | --- | --- |
| Cc1c(Cl)cccc1Nc1ccccc1C(=O)OCc1cc(C(C)(C)C)c(O)c(C(C)(C)C)c1 [Compound 5, 3,5-di-tert-butyl-4-hydroxybenzyl 2-((3-chloro-2-methylphenyl)amino)benzoate] | > 200 µM |  | 55% |  |
| COc1ccc2cc(C(C)COC(=O)c3cc(C(C)(C)C)c(O)c(C(C)(C)C)c3)ccc2c1 (stereo not drawn) [Compound 4, 2-(6-methoxynaphthalen-2-yl)propyl 3,5-di-tert-butyl-4-hydroxybenzoate] | 64 µM | 154.1 to 155 °C | 49% |  |
| CC(C)Cc1ccc(C(C)COC(=O)c2cc(C(C)(C)C)c(O)c(C(C)(C)C)c2)cc1 (stereo not drawn) [Compound 2, 2-(4-isobutylphenyl)propyl 3,5-di-tert-butyl-4-hydroxybenzoate] |  |  | 56% |  |
| Cc1cccc(Nc2ccccc2CO)c1C [j, (2-((2,3-dimethylphenyl)amino)phenyl)methanol, reference compound] |  |  | 42% |  |
| Cc1c(Cl)cccc1Nc1ccccc1COC(=O)c1cc(C(C)(C)C)c(O)c(C(C)(C)C)c1 [Compound 6, 2-((3-chloro-2-methylphenyl)amino)benzyl 3,5-di-tert-butyl-4-hydroxybenzoate] | > 150 µM | 141.1 to 141.8 °C | 67% |  |
| Cc1cccc(Nc2ccccc2COC(=O)c2cc(C(C)(C)C)c(O)c(C(C)(C)C)c2)c1C [Compound 10, 2-((2,3-dimethylphenyl)amino)benzyl 3,5-di-tert-butyl-4-hydroxybenzoate] | 15 µM | 136.3 to 136.9 °C | 54% | improvement in edema reduction ([2]; compared to parent mefenamic acid (i)): 1.5–2 fold; reduction of total cholesterol (TC) levels in plasma [4]: 50%; reduction of triglyceride (TG) levels in plasma [4]: 41% |
| CC(C)Cc1ccc(C(C)CO)cc1 (stereo not drawn) [b, Ibuprofenol, reference compound] |  |  | 66% |  |
| CC(C)(C)c1cc(COC(=O)c2ccccc2Nc2cccc(C(F)(F)F)c2)cc(C(C)(C)C)c1O [Compound 7, 3,5-di-tert-butyl-4-hydroxybenzyl 2-((3-(trifluoromethyl)phenyl)amino)benzoate] | 152 µM | 87.2 to 88 °C | 38% | improvement in anti-inflammatory activity [2]: 2–2.5 fold |
| CC(C)(C)c1cc(C(=O)OCc2ccccc2Nc2cccc(C(F)(F)F)c2)cc(C(C)(C)C)c1O [Compound 8, 2-((3-(trifluoromethyl)phenyl)amino)benzyl 3,5-di-tert-butyl-4-hydroxybenzoate] | 150 µM | 119.9 to 120.5 °C | 48% | improvement in anti-inflammatory activity [2]: 2–2.5 fold |
| CC(C)Cc1ccc(C(C)C(=O)OCc2cc(C(C)(C)C)c(O)c(C(C)(C)C)c2)cc1 (stereo not drawn) [Compound 1, 3,5-di-tert-butyl-4-hydroxybenzyl 2-(4-isobutylphenyl)propanoate] | 22 µM |  | 26% |  |
| OCc1ccccc1Nc1cccc(C(F)(F)F)c1 [h, (2-((3-(trifluoromethyl)phenyl)amino)phenyl)methanol, reference compound] |  |  | 22% |  |
| O=C(O)Cc1ccccc1Nc1c(Cl)cccc1Cl [k, Diclofenac] |  |  |  | % Edema Reduction ([5]; 0.30 mmol/kg i.p.): 61*** [5] % |
| COc1ccc2c(c1)c(CC(=O)O)c(C)n2C(=O)c1ccc(Cl)cc1 [m, Indomethacin] |  |  |  | % Edema Reduction ([5]; 0.30 mmol/kg i.p.): 55*** [5] % |
| CC(C)Cc1ccc(C(C)C(=O)O)cc1 (stereo not drawn) [a, Ibuprofen] |  |  |  | % Edema Reduction ([5]; 0.30 mmol/kg i.p.): 57*** [5] % |
| O=C(O)c1ccccc1Nc1cccc(C(F)(F)F)c1 [g, Flufenamic acid] |  |  |  | % Edema Reduction ([5]; 0.15 mmol/kg i.p.): 19**^a [17] % |

More lines, main results first:

| IC50 [1] | melting point | Compound | inhibition in vivo at 300 µmol/kg [2] | other results |
| --- | --- | --- | --- | --- |
| 122 µM | 147.8 to 149.2 °C | CC(C)(C)c1cc(C(=O)OCCc2ccccc2Nc2c(Cl)cccc2Cl)cc(C(C)(C)C)c1O [Compound 12, 2-((2,6-dichlorophenyl)amino)phenethyl 3,5-di-tert-butyl-4-hydroxybenzoate] | 54% |  |
|  | 48.4 to 48.7 °C | Cc1c(Cl)cccc1Nc1ccccc1CO [f, (2-((3-chloro-2-methylphenyl)amino)phenyl)methanol] | 43% |  |
| > 150 µM | 69.2 to 70 °C | Cc1c(C)c2c(c(C)c1O)CCC(C)(C(=O)OCC(C)c1ccc(CC(C)C)cc1)O2 (stereo not drawn) [Compound 14, 2-(4-isobutylphenyl)propyl6-hydroxy-2,5,7,8-tetramethylchromane-2-carboxylate] | 42% | IC50 [3]: 34 µM |
| 142 µM | 149 to 149.7 °C | CC(C)(C)c1cc(COC(=O)Cc2ccccc2Nc2c(Cl)cccc2Cl)cc(C(C)(C)C)c1O [Compound 11, 3,5-di-tert-butyl-4-hydroxybenzyl 2-(2-((2,6-dichlorophenyl)amino)phenyl)acetate] | 40% |  |
| 54 µM | 150.4 to 151.3 °C | Cc1c(Cl)cccc1Nc1ccccc1COC(=O)C1(C)CCc2c(C)c(O)c(C)c(C)c2O1 (stereo not drawn) [Compound 16, 2-((3-chloro-2-methylphenyl)amino)benzyl 6-hydroxy-2,5,7,8-tetramethylchromane-2-carboxylate] | 54% | IC50 [3]: 47 µM; reduction of total cholesterol (TC) levels in plasma [4]: 55%; reduction of triglyceride (TG) levels in plasma [4]: 78% |
| > 150 µM |  | COc1ccc2c(c1)c(CCOC(=O)C1(C)CCc3c(C)c(O)c(C)c(C)c3O1)c(C)n2C(=O)c1ccc(Cl)cc1 (stereo not drawn) [Compound 17, 2-(1-(4-chlorobenzoyl)-5-methoxy-2-methyl-1H-indol-3-yl)ethyl 6-hydroxy-2,5,7,8-tetramethylchromane-2-carboxylate] | 45% | IC50 [3]: 76 µM |
| 9 µM |  | COc1ccc2cc(C(C)COC(=O)C3(C)CCc4c(C)c(O)c(C)c(C)c4O3)ccc2c1 (stereo not drawn) [Compound 15, 2-(6-methoxynaphthalen-2-yl)propyl 6-hydroxy-2,5,7,8-tetramethylchromane-2-carboxylate] | 55% | IC50 [3]: 147 µM; reduction of total cholesterol (TC) levels in plasma [4]: 42%; reduction of triglyceride (TG) levels in plasma [4]: 65% |
| 68 µM | 149.3 to 149.9 °C | COc1ccc2c(c1)c(CC(=O)OCc1cc(C(C)(C)C)c(O)c(C(C)(C)C)c1)c(C)n2C(=O)c1ccc(Cl)cc1 [Compound 13, 3,5-di-tert-butyl-4-hydroxybenzyl 2-(1-(4-chlorobenzoyl)-5-methoxy-2-methyl-1H-indol-3-yl)acetate] | 39% |  |
| 29 µM |  | COc1ccc2cc(C(C)CO)ccc2c1 (stereo not drawn) [d, 2-(6-methoxynaphthalen-2-yl)propan-1-ol, reference compound] | 40% |  |
